These results are taken from US20040057908A1, “Oral compositions and use thereof” (priority 2003, published 2004).

“Also recorded” adds a separate entry of the source. Some results are limits rather than exact numbers.

As a reminder, the MIC is the smallest concentration in the dilution series that meets the test's criterion for growth inhibition.

In assay [1] the test system is S. mutans UA159 and S. sobrinus 6715 biofilms. In words: Time-kill assay in 5-day-old biofilms. The format is cell-based. The following applies: 1.33 mM (fluoride 250 ppm). The procedure:
Cells of mutans streptococci were grown in tryptone-yeast extract broth with addition of 1% (w/v) sucrose at 37° C. and 5% CO2. […] The killing assays were performed according to Phan et al. (2000). […] The homogenized suspension was serially diluted (10^1 to 10^4) and plated on tryptic soy agar or blood agar by means of a spiral plater (Autoplate model 3000, Spiral Biotech, Inc., Bethesda, Md). […] Killing curves were constructed by plotting log10 CFU/ml versus time over 4 h. All the assays were carried out in quadruplicate on at least 3 different occasions. Bactericidal effect was defined as a ≧3 log10 decreases in the CFU/ml from initial viable counts, at time zero. The potential for drug carry-over to produce falsely low viability counts was minimized by dilution of inocula and plating of small volumes of diluted samples (50 μl).

The next assay addresses T1, GTF B (Streptococcus mutans serotype c, UniProt P08987).
T1 construct: made in house; host or cells: Streptococcus milleri KSB8 (culture supernatant)
In words: GTF activity in solution, GTF B. The class given is biochemical. The following applies: read-out: GTF B sol. % of Inhib. The procedure:
Glucosyltransferase activity was measured by the incorporation of [^14C-glucose] from labeled sucrose (NEN Research Products, Boston, Mass.) into glucans (Germaine et al., 1974; Venkitaraman et al., 1995). The GTF enzyme added to each sample for all assays was equivalent to the amount required to incorporate 1.0-1.5 μmol of glucose over the four hours reaction (1.0-1.5 units).
For solution assays, purified GTF B, C, D and Ss were mixed with a two-fold dilution series of the test compounds (concentration ranging from 125 to 500 μM) and incubated with [^14C-glucose]-sucrose substrate (0.2 μCi/ml) (200.0 mmol/l sucrose, 40 μmol/l dextran 9000, 0.02% sodium azide in adsorption buffer—50 mM KCl, 1.0 mM KPO4, 1.0 mM CaCl2, 0.1 mM MgCl2−pH=6.5) to reach a final concentration of 100 mmol/l sucrose (200 μl final volume). For the control, the same reaction was carried out, where ethanol:DMSO (final concentration of 7.5% and 1.25%, v/v) or ethanol (final concentration of 5%, v/v) replaced the test agent solutions. The samples were incubated 37° C. with rocking for 4 h. After incubation, ice-cold ethanol (1.0 ml) was added and the samples were stored for 18 h, 4° C. for precipitation of glucans. Radiolabeled glucan was determined by scintillation counting (Germaine et al., 1974; Venkitaraman et al., 1995).

For assay [2], the system named is Mutans Streptococci Strains. As to the kind of experiment: MIC and MBC, broth dilution, all strains stated together. The class given is cell-based, S. mutans (GS-5 and UA159) and S. sobrinus 6715. The following applies: Streptococcus mutans; all strains tested (S. mutans GS-5, UA159, S. sobrinus 6715); read-out: MIC. As for the experimental part: The minimum inhibitory concentration (MIC) and minimum bactericidal concentration (MBC) were determined for each test compound according to the National Committee for Clinical Laboratory Standards guidelines (Tentative standard M26-T, 1992; NCCLS Publication No. M7-A5, 2000) and Koo et al. (2000b). The broth microdilution and macrodilution methods (in TSB) were used for the antibacterial tests. The starting inoculum was 5×10^5 CFU/ml and the concentrations of test compounds ranged from 15.6 to 500 μM (two-fold dilutions). The MICs and MBCs were determined in quadruplicate in at least 3 different experiments.
A general note: Broth dilution looks for growth in wells or tubes with falling amounts of substance.

The next assay relates to biofilms. As to the kind of experiment: Formation of biofilms (continued research). The class given is cell-based.
The subject of a further assay is T2, streptococcal GTFs.
T2 construct: Streptococcus milleri KSB8, which harbors the gtfB gene from S. mutans GS-5 (for GTF B production)
As to the kind of experiment: GTF activity in solution, all GTFs (B, C, D, Ss) stated together. The class given is biochemical, Streptococcus mutans, S. sanguinis. The following applies: 1.33 mM. As for the experimental part: The GTF enzyme added to each sample for all assays was equivalent to the amount required to incorporate 1.0-1.5 μmol of glucose over the four hours reaction (1.0-1.5 units).
The samples were incubated 37° C. with rocking for 4 h.
For this assay, a one-way layout experimental design was used in 4×2×7 factorial scheme (enzyme×state×dose). An analysis of variance was carried out and qualitative treatments were compared using Tukey test at level of 5% of significance (p<0.05). A non-linear regression was applied in order to evaluate effects of different concentrations.

T1 sequence (P08987 35-1476): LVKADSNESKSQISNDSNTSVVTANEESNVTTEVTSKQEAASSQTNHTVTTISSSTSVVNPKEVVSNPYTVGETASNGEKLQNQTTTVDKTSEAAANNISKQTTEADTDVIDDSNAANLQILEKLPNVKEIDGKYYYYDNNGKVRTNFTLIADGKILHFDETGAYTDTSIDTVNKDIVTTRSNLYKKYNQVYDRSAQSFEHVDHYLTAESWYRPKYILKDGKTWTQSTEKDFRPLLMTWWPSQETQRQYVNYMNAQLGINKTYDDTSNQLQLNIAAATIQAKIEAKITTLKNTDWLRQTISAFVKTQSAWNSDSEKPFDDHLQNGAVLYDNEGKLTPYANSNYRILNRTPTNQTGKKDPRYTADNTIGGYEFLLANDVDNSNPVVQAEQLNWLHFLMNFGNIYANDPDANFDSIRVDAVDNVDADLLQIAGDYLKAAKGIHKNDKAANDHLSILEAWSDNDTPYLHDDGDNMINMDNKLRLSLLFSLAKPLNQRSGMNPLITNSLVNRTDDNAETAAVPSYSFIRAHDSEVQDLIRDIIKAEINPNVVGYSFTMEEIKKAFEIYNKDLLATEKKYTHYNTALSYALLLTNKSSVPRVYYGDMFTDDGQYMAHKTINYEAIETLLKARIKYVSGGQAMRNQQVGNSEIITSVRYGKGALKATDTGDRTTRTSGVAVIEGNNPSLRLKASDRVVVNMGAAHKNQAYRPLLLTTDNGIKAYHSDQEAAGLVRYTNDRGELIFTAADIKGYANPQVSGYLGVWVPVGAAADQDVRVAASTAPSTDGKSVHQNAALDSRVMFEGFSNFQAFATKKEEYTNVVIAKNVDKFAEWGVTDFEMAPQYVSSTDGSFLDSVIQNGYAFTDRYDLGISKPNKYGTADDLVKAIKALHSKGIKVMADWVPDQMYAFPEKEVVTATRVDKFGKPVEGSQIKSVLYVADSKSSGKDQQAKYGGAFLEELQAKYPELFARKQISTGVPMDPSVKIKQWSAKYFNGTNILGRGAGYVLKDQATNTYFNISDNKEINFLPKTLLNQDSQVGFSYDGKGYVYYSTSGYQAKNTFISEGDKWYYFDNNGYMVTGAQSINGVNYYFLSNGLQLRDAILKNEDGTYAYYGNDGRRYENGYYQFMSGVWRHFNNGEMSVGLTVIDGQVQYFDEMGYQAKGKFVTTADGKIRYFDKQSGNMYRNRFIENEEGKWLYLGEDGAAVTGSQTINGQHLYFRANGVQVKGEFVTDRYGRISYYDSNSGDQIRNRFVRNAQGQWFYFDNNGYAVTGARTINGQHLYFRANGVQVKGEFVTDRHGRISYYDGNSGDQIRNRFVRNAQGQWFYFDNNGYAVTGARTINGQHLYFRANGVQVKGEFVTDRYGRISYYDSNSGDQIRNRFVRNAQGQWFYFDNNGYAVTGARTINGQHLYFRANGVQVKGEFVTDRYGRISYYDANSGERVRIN

As for `O=c1cc(-c2ccc(O)cc2)oc2cc(O)cc(O)c12` [Apigenin], the “antibacterial activity against mutans streptococci biofilms (in words)” value in assay [1] is “devoid of antibacterial effects; also recorded: negligible antibacterial activity”. In addition, on GTF B, the inhibition at 125 µM turned out to be 78.3%, the inhibition at 250 µM amounted to 92.8% and the inhibition at 500 µM stood at 94.3%. Also, in assay [2], the MIC is over 500 µM. Also, in the assay with biofilms, the “formation of biofilms (in words)” value is “inhibits formation of biofilms”. Besides, the “inhibition of GTFs in solution” value in the assay with streptococcal GTFs is recorded as 90-95%.
